Key:
Huh-7 cells = experiment: Cytotoxicity (CC50) in Huh-7 cells; format: cell-based; settings: Huh7, Human, Liver, n = 3
BEAS-28/Gal* cells = experiment: Cytotoxicity (CC50) in BEAS-28/Gal* cells; format: cell-based; settings: Human, Lung
Lassa fever virus = experiment: organism not typed; format: cell-based
MDCK/Gal* cells = experiment: Cytotoxicity (CC50) in MDCK/Gal* cells; format: cell-based; settings: Canine, Kidney
Machupo = experiment: microbe, parasite or virus in culture; format: cell-based, Machupo virus; settings: Mammarenavirus machupoense
[1] = Mouse plasma PK, single dose; settings: for AUC-INF/Dose / Cmax/Dose: CD-1 mice; for AUC(0-inf) / Cmax / half-life / Tmax: female, ICR (CD-1), mouse, plasma, po
HBTECs = experiment: Cytotoxicity (CC50) in HBTECs; format: cell-based; settings: Human, Respiratory Tract
BxPC-3 cells = experiment: Cytotoxicity (CC50) in BxPC-3 cells; format: cell-based; settings: BxPC-3, Human, Pancreas
H9c2 cells = experiment: Cytotoxicity (CC50) in H9c2 cells; format: cell-based; settings: H9c2, Rat, Heart
Lujo = experiment: microbe, parasite or virus in culture; format: cell-based, Lujo virus; settings: Mammarenavirus lujoense
[2] = Ferret plasma PK, single dose; format: in vivo; settings: ferrets; for AUC(0-inf) / Cmax / Tmax / half-life: plasma
BHK-T7 cells = experiment: Cytotoxicity (CC50) in BHK-T7 cells; format: cell-based; settings: BHK-T7, Hamster, Kidney
Pichinde virus = format: cell-based
MA-104 cells = experiment: Cytotoxicity (CC50) in MA-104 cells; format: cell-based; settings: MA-104, Monkey, Kidney, n = 2
[3] = Cytotoxicity (CC50) in HeLa cells; format: cell-based; settings: human, alongside antiviral assays
RAW264.7 cells = experiment: Cytotoxicity (CC50) in RAW264.7 cells; format: cell-based; settings: RAW 264.7, Mouse, Macrophage
RD cells = experiment: Cytotoxicity (CC50) in RD cells; format: cell-based, Human; settings: RD, Human, Muscle
[4] = Cytotoxicity (CC50) in RD cells; format: cell-based, Human; settings: human, RD cells, alongside antiviral assays
Poliovirus = experiment: microbe, parasite or virus in culture; format: cell-based; settings: Enterovirus C, Vero 76
MDCK cells = experiment: Cytotoxicity (CC50) in MDCK cells; format: cell-based; settings: Canine, Kidney, n = 6
Junin virus = experiment: microbe, parasite or virus in culture; format: cell-based; settings: Mammarenavirus juninense
Measles = Measles antiviral assay; format: cell-based, measles virus; settings: Measles morbillivirus; strain CC; Vero 76 cells
HG23 cells = experiment: Cytotoxicity (CC50) in HG23 cells; format: cell-based; settings: HG23, Human
IEC-6 cells = experiment: Cytotoxicity (CC50) in IEC-6 cells; format: cell-based; settings: IEC-6, Rat, Small intestine
Vero cells = settings: green monkey
HepG2/Gal* cells = experiment: Cytotoxicity (CC50) in HepG2/Gal* cells; format: cell-based; settings: Human
[5] = Guinea pig plasma PK, single dose; format: in vivo; settings: Guinea pigs
BEAS-28 cells = experiment: Cytotoxicity (CC50) in BEAS-28 cells; format: cell-based; settings: BEAS-28, Human, Lung
A-204 cells = experiment: Cytotoxicity (CC50) in A-204 cells; format: cell-based; settings: A204, Human, Muscle
Enterovirus-68 = Enterovirus-68 antiviral assay; format: cell-based; settings: strain US/KY/14-18953; RD cells
Mayaro = Mayaro antiviral assay; format: cell-based; settings: strain BEAR 505411; Vero 76 cells
EEEV = experiment: microbe, parasite or virus in culture; format: cell-based; settings: Eastern equine encephalitis virus, Vero 76
CEM cells = experiment: Cytotoxicity (CC50) in CEM cells; format: cell-based; settings: Human, Lymphoid
A549 cells = experiment: Cytotoxicity (CC50) in A549 cells; format: cell-based; settings: A549, Human, Lung
MERS = experiment: microbe, parasite or virus in culture; format: cell-based, Middle East Respiratory Syndrome coronavirus
HCoV-beta OC43 = HCoV-beta OC43 antiviral assay; format: cell-based; settings: Betacoronavirus 1; strain OC43; RD cells
in vitro = settings: human
SARS-CoV-2 = experiment: microbe, parasite or virus in culture; format: cell-based; settings: Severe acute respiratory syndrome coronavirus 2, Calu-3
SARS = experiment: microbe, parasite or virus in culture; format: cell-based, SARS coronavirus; settings: Severe acute respiratory syndrome coronavirus, Vero 76
HCoV-alpha 229E = HCoV-alpha 229E antiviral assay; format: cell-based, HCoV-229E; settings: Human coronavirus 229E; strain 229E; Huh-7 cells
Plasma stability, rat = settings: drug 1.00 μM
[6] = Liver microsome stability, human; settings: human liver microsomes, drug 1.00 μM
[7] = Liver microsome stability, rat; settings: rat liver microsomes, drug 1.00 μM
Plasma stability, human = settings: drug 1.00 μM
[8] = Liver microsome stability, mouse; settings: mouse liver microsomes, drug 1.00 μM
Plasma stability, mouse = settings: drug 1.00 μM
[9] = guinea pig, 50 mg/kg PO, plasma

For `O=c1ccn([C@@H]2O[C@](F)(CO)[C@@H](O)[C@H]2O)c(=O)[nH]1` [EIDD-02749, 1-[(2R, 3R, 4S, 5S)-5-fluoro-3,4-dihydroxy-5-(hydroxymethyl)tetrahydrofuran-2-yl]pyrimidine-2,4-dione], the “CC” value (Huh-7 cells) was over 400 µM, the “CC” value (BEAS-28/Gal* cells) was 250 µM and the EC50 (Lassa fever virus; HeLa) was 450 nM. For the same compound, the EC50 (Lassa fever virus; Huh-7) was 900 nM, the EC50 (Lassa fever virus; Vero C1008) was 360 nM and the “CC” value (MDCK/Gal* cells) was 444 µM. It also gave an EC50 (Machupo; HeLa) of 70 nM, an EC50 (Machupo; Huh-7) of 310 nM and an EC50 (Machupo; Vero C1008) of 1490 nM. It also gave an AUC-INF/Dose ([1]; 10 mg/kg IP) of 514.5 h*kg*nmol/mL/mmol, a Cmax/Dose ([1]; 10 mg/kg IP) of 202.1 kg*nmol/mL/mmol and an AUC-INF/Dose ([1]; 50 mg/kg PO) of 1215.0 h*kg*nmol/mL/mmol. It also gave a Cmax/Dose ([1]; 50 mg/kg PO) of 184.3 kg*nmol/mL/mmol, an AUC-INF/Dose ([1]; 150 mg/kg PO) of 685.8 h*kg*nmol/mL/mmol and a Cmax/Dose ([1]; 150 mg/kg PO) of 76.2 kg*nmol/mL/mmol. It also gave a Cmax/Dose ([1]; 500 mg/kg PO) of 39.9 kg*nmol/mL/mmol, an AUC(0-inf) ([1]; 1.5 mg/kg) of 6.58 µM·h and a Cmax ([1]; 1.5 mg/kg) of 1.2 µM. For the same compound, the half-life ([1]; 1.5 mg/kg) was 1070 min, the AUC(0-inf) ([1]; 5 mg/kg) was 28.6 µM·h and the Cmax ([1]; 5 mg/kg) was 7.1 µM. The half-life ([1]; 5 mg/kg) was 912 min, the AUC(0-inf) ([1]; 15 mg/kg) was 86.9 µM·h and the Cmax ([1]; 15 mg/kg) was 23.3 µM. The half-life ([1]; 15 mg/kg) was 1220 min, the half-life ([1]; 50 mg/kg) was 497 min and the Tmax ([1]; 150 mg/kg) was 1 h. The half-life ([1]; 150 mg/kg) was 508 min, the Tmax ([1]; 500 mg/kg) was 1 h and the “CC” value (HBTECs) was over 500 µM. For the same compound, the “CC” value (BxPC-3 cells) was over 400 µM, the “CC” value (H9c2 cells) was over 400 µM and the EC50 (Lujo; HeLa) was 70 nM. The EC50 (Lujo; Huh-7) was 1320 nM, the EC50 (Lujo; Vero C1008) was 830 nM and the AUC-INF/Dose ([2]; 15 mg/kg PO) was 2691.2 ± 483.7 h*kg*nmol/mL/mmol. The Cmax/Dose ([2]; 15 mg/kg PO) was 608.2 ± 114.0 kg*nmol/mL/mmol, the AUC(0-inf) ([2]; 15 mg/kg PO) was 154 ± 27.6 µM·h and the Cmax ([2]; 15 mg/kg PO) was 34.8 ± 6.5 µM. The Tmax ([2]; 15 mg/kg PO) was 1 h, the half-life ([2]; 15 mg/kg PO) was 358 ± 21 min and the AUC-INF/Dose ([2]; 50 mg/kg PO) was 2166.1 ± 409.8 h*kg*nmol/mL/mmol. It also gave a Cmax/Dose ([2]; 50 mg/kg PO) of 332.0 ± 57.5 kg*nmol/mL/mmol, an AUC(0-inf) ([2]; 50 mg/kg PO) of 413 ± 78.1 µM·h and a Cmax ([2]; 50 mg/kg PO) of 63.3 ± 10.9 µM. The Tmax ([2]; 50 mg/kg PO) was 2.3 ± 1.5 h, the half-life ([2]; 50 mg/kg PO) was 258 ± 48 min and the “CC” value (BHK-T7 cells) was over 500 µM. For the same compound, the EC90 (Pichinde virus) was 320 nM, the “CC” value (MA-104 cells) was over 380 µM and the CC50 [3] was 77 µM. The “CC” value (RAW264.7 cells) was over 100 µM, the “CC” value (RD cells) was over 380 µM and the CC50 [4] was 228 µM. The EC90 (Poliovirus) was 3.8 µM, the “CC” value (MDCK cells) was over 380 µM and the EC50 (Junin virus; HeLa) was 20 nM. The EC50 (Junin virus; Huh-7) was 250 nM, the EC50 (Junin virus; Vero C1008) was 80 nM and the EC50 (Measles) was 1060 nM. For the same compound, the “CC” value (HG23 cells) was 100 µM, the “CC” value (IEC-6 cells) was over 400 µM and the “CC” value (Vero cells) was over 380 µM. The “CC” value (HepG2/Gal* cells) was over 400 µM, the “AUC0->∞/Dose” value ([5]; 5 mg/kg IV) was 5639.4 ± 234.2 h · kg · nmol/mL · mmol and the Cmax/Dose ([5]; 5 mg/kg IV) was 7525.0 ± 6050.9 kg · nmol/mL · mmol. The “AUC0->∞/Dose” value ([5]; 5 mg/kg PO) was 4869.4 ± 841.9 h · kg · nmol/mL · mmol, the Cmax/Dose ([5]; 5 mg/kg PO) was 1054.5 ± 118.8 kg · nmol/mL · mmol and the VD ([5]; 5 mg/kg PO) was 13.0 ± 1.6 L/kg. The “AUC0->∞/Dose” value ([5]; 50 mg/kg PO) was 2923.1 ± 209.6 h · kg · nmol/mL · mmol, the Cmax/Dose ([5]; 50 mg/kg PO) was 453.0 ± 51.2 kg · nmol/mL · mmol and the VD ([5]; 50 mg/kg PO) was 14.9 ± 1.9 L/kg. The clearance ([5]; guinea pig, plasma, 5 mg/kg IV) was 3 mL/min/kg, the AUC(0-inf) ([5]; guinea pig, 5 mg/kg IV, plasma) was 108 ± 4.5 µM·h and the Cmax ([5]; guinea pig, 5 mg/kg IV, plasma) was 144 ± 115 µM. The Tmax ([5]; guinea pig, 5 mg/kg IV, plasma) was 0.083 h, the half-life ([5]; guinea pig, 5 mg/kg IV, plasma) was 558 ± 78 min and the AUC(0-inf) ([5]; guinea pig, 5 mg/kg PO, plasma) was 92.9 ± 16.1 µM·h. The Cmax ([5]; guinea pig, 5 mg/kg PO, plasma) was 20.1 ± 2.3 µM, the Tmax ([5]; guinea pig, 5 mg/kg PO, plasma) was 1.3 ± 0.5 h and the half-life ([5]; guinea pig, 5 mg/kg PO, plasma) was 1210 ± 138 min. For the same compound, the AUC(0-inf) [5, 9] was 558 ± 39.9 µM·h, the Cmax [5, 9] was 86.4 ± 9.8 µM and the Tmax [5, 9] was 1.8 ± 0.5 h. For the same compound, the half-life [5, 9] was 5180 ± 588 min, the “CC” value (BEAS-28 cells) was over 500 µM and the “CC” value (A-204 cells) was over 400 µM. It also gave an EC90 (Enterovirus-68) of 1060 nM, an EC50 (Mayaro) of 2810 nM and an EC90 (Mayaro) of 9.5 µM. For the same compound, the EC90 (EEEV) was 1790 nM, the “CC” value (CEM cells) was 107 µM and the “CC” value (A549 cells) was over 400 µM.

`O=c1ccn([C@@H]2O[C@](F)(CO)[C@@H](O)[C@H]2O)c(=O)[nH]1` [EIDD-2749] gave an EC50 (MERS) of 5.7 µM, an EC90 (MERS; Middle East respiratory syndrome-related coronavirus, Vero 76) of 9.5 µM and an EC50 (HCoV-beta OC43) of 1060 nM. It also gave an EC90 (HCoV-beta OC43) of 2850 nM, a CC50 (in vitro) of over 50 µM and an EC50 (SARS-CoV-2) of 1900 nM. For the same compound, the EC50 (SARS) was 14.1 µM, the EC50 (HCoV-alpha 229E) was 1670 nM and the EC90 (HCoV-alpha 229E) was 9.5 µM.

In the case of `O=c1ccn([C@@H]2O[C@](F)(COP3(=O)OCc4ccccc4O3)[C@@H](O)[C@H]2O)c(=O)[nH]1` (stereo partly shown) [EIDD-02838], the half-life (Plasma stability, rat) is reported as under 1 min, the “max [2749]” value (Plasma stability, rat; EIDD-2749 formed) is reported as 0.0341 µM and the half-life [6] is reported as 7 min. The “max [2749]” value ([6]; EIDD-2749 formed) was 0.130 µM, the half-life [7] was 8 min and the “max [2749]” value ([7]; EIDD-2749 formed) was 0.218 µM. For the same compound, the half-life (Plasma stability, human; 37° C) was 12 min, the “max [2749]” value (Plasma stability, human; EIDD-2749 formed) was 0.0521 µM and the half-life [8] was 7 min. The “max [2749]” value ([8]; EIDD-2749 formed) was 0.0347 µM, the half-life (Plasma stability, mouse) was 1 min and the “max [2749]” value (Plasma stability, mouse; EIDD-2749 formed) was 0.0216 µM.

Compound `CC(C)C(=O)OC[C@@]1(F)OC(n2ccc(=O)[nH]c2=O)C(O)[C@@H]1O` (stereo partly drawn) [EIDD-2947, [(2S, 3S)-5-(2,4-dioxopyrimidin-1-yl)-2-fluoro-3,4-dihydroxy-tetrahydrofuran-2-yl]methyl 2-methylpropanoate] has a half-life [6] of 44 min.
